# Reference: patent US20060242728A1, “Chemically-inducible promotors for the expression of proteins in plants” (priority 2003, published 2006)
# What was measured:
# NIMIN-2 promoter = assay: GUS reporter gene activity in leaf discs of transgenic lines floated on inducer; format: cell-based, Arabidopsis thaliana; settings: leaf discs floated on 1 mM SA or 140 mg/l Bion, 3 days, protein extracts; FIG. 3
# Experimental: (§1) For characterizing the influence of chemicals on the activity of the NIMIN promoters, leaf discs were punched from the transgenic lines NIMIN1-GUS and NIMIN2-GUS. As a control, PR-1a promoter fusions were used. The leaf discs were floated on 1 mM SA, 140 mg/l Bion (a functional analogue to salicylic acid) or water. After 3 days, protein extracts were prepared and the activity of the GUS reporter gene in the extracts was assayed. The resulting reporter gene activities were 5 times higher In the NIMIN-2 promoter fusions than In PR-1a promoter fusions (cf. FIG. 3). Further, leaf discs from the transgenic lines NIMIN1-GUS and NIMIN2-GUS were incubated with different salicylic acid concentrations.
# NIMIN promoters = assay: GUS reporter gene activity in leaf discs incubated with different salicylic acid concentrations; format: cell-based, Arabidopsis thaliana; settings: leaf discs of NIMIN1-GUS and NIMIN2-GUS lines; FIGS. 4 and 5
# Experimental: as §1
# NIMIN-1 mRNA = settings: cited from earlier work
# NIMIN-2 mRNA = settings: cited from earlier work
SMILES,reporter gene (GUS) activity in NIMIN-2 promoter fusions relative to PR-1a promoter fusions (NIMIN-2 promoter),activity of the NIMIN promoters versus inducer concentration (NIMIN promoters),inducibility of NIMIN-1 mRNA (NIMIN-1 mRNA),inducibility of NIMIN-2 mRNA (NIMIN-2 mRNA)
O=C(O)c1ccccc1O [salicylic acid],5 times,depends on the salicyclic acid concentration,inducible,inducible
CSC(=O)c1cccc2nnsc12 [Bion],5 times,,inducible,inducible
